Data from patent US20240317706A1, “COMPOUNDS THAT MEDIATE PROTEIN DEGRADATION AND METHODS OF USE THEREOF” (Monte Rosa Therapeutics, Inc., priority 2021, published 2024).
pKi: −log10 of the molar value.

Experiments:
CDK2 = target: T1, CDK2 (Homo sapiens, UniProt P24941); assay: NanoBiT assay (CDK2 degradation); type: cell-based; details: HEK293, HEK293 clonal line with CRISPR KI HiBiT tag on CDK2, Endurazine live cell substrate, 24 hours
T1 construct: HEK293 clonal lines with CRISPR KI HiBiT tag on CDK2 proteins; host or cells: HEK293 clonal line, CRISPR knock-in HiBiT-CDK2, stably expressing LgBiT
Procedure: HEK293 clonal lines with CRISPR KI HiBiT tag on either CDK2 proteins and stably expressing LgBiT protein were obtained from Promega (Madison, WI). Cells were plated at 5000 cells per well using Multiflo (BioTek) in 384-well white solid bottom plates (Corning, 3570BC) in 25 ul volume in DMEM media (DMEM, high glucose, HEPES, no phenol red (ThermoFisher Scientific, 21063029)) containing 10% FBS (Corning, 35-075-CV), 1% Penicillin/Streptomycin ((ThermoFisher Scientific, 15140-122), and 1% Endurazine (Nano-Glo Endurazine Live Cell Substrate (Promega, N2571)). Cells were incubated for 16 hours at 37 C, 5% CO2. 75 nL of a compound at 30 μM were dosed into the plate using an Echo® 650 liquid handler (Labcyte). Cells were incubated at 37° C., 5% CO2 for 24 hours and then signal was read on a Pherastar FSX using “LUM plus” optic module.
Analysis was performed in Scinamic (Scinamic, Cambridge, MA). Luminescence response (R) was calculated by the formula: response=100*(S−N)/(P−N) where S is the signal of the well, N and P the mean negative and positive control values respectively of the same plate. The luminescence response was then fitted in Scinamic using a 3-parameter agonist logistic fit (hillslope=1, EC50>0, top/bottom unconstrained).

CRBN-DDB1 = CRBN-DDB1 (Homo sapiens, UniProt Q96SW2); assay: Compound binding to CRBN by HTRF assay; details: CRBN-DDB1 2.5 nM, Cy5-Thalidomide 100 nM, 30 min; Ki from geometric mean IC50 by Cheng-Prustoff transformation
Procedure: Compound activity was monitored in a Homogenous Time-Resolved Fluorescence (HTRF) assay using 1-[5-({2-[2-(2-{[2-(2,6-dioxopiperidin-3-yl)-1,3-dioxo-2,3-dihydro-1H-isoindol-4-yl]oxy}acetamido)ethoxy]ethyl}carbamoyl)pentyl]-3,3-dimethyl-2-[(1E,3E)-5-[(2E)-1,3,3-trimethyl-5-sulfo-2,3-dihydro-1H-indol-2-ylidene]penta-1,3-dien-1-yl]-3H-indol-1-ium-5-sulfonate as a fluorescent probe. Biochemical assays were conducted in Greiner white 384 well HiBase plates (Cat. No 784075-25) in 10 μL total volume. A one pot detection solution of CRBN-DDB1 (2.5 nM), Anti-His Terbium Cryptate Gold (1×, PerkinElmer Cat. #: 61HI2TLB), and Cy5-Thalidomide (100 nM, Tenova Cat.: T52461) was prepared in 20 mM HEPES, 20 mM NaCl, 0.2 mM TCEP, 0.2 mM EDTA, and 0.005% Tween20 was dispensed to each assay plate. Compounds were stored in dry, ambient temperatures at 10 mM. A 10-point, 1:3 dilution series was prepared from 10 mM stock concentrations in Echo-compatible LDV plates. 10 nL of each compound dilution series was dispensed into assays wells using an Echo 650 (Labcyte inc. USA). 10 nL of 10 mM Lenalidomide was transferred into the active-control wells for the assay and 10 nL of DMSO was transferred into the neutral-control wells. The assay was then allowed to incubate for 30 min at ambient temperature after transferring compound. Plate measurements were taken on a Pherastar FSX (BMG Labtech, Germany) using the HTRF Red filter (Ex. 337 nm, em1: 620 nm, em2: 665 nm) (Flashes: 50, Integration time: 60-400 us, Z-height: 10 mm, Ratio-multiplier: 10,000). The HTRF signal was then subsequently normalized to the neutral and active controls. Analysis and IC50 values were derived using KNIME analytics (KNIME Zurich) transformation and fitting within Collaborative Drug Discovery (Collaborative Drug Discovery USA). Ki was derived from the geometric mean of the IC50 values using the Cheng-Prustoff transformation.

CRBN-DDB1, sequence (Q96SW2 whole entry): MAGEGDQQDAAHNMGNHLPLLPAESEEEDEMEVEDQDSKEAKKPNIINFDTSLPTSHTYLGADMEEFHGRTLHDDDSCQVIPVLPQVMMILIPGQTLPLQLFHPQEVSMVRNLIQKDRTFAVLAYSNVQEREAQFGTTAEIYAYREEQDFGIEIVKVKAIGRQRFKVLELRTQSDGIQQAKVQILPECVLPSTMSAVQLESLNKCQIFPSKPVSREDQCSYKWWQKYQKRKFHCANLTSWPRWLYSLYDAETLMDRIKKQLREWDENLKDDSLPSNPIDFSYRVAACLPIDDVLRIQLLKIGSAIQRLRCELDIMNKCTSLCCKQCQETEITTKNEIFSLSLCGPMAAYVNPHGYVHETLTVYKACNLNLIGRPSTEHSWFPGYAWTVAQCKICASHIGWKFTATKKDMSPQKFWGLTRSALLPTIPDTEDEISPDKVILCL
CRBN-DDB1, sequence (Q16531 whole entry partner): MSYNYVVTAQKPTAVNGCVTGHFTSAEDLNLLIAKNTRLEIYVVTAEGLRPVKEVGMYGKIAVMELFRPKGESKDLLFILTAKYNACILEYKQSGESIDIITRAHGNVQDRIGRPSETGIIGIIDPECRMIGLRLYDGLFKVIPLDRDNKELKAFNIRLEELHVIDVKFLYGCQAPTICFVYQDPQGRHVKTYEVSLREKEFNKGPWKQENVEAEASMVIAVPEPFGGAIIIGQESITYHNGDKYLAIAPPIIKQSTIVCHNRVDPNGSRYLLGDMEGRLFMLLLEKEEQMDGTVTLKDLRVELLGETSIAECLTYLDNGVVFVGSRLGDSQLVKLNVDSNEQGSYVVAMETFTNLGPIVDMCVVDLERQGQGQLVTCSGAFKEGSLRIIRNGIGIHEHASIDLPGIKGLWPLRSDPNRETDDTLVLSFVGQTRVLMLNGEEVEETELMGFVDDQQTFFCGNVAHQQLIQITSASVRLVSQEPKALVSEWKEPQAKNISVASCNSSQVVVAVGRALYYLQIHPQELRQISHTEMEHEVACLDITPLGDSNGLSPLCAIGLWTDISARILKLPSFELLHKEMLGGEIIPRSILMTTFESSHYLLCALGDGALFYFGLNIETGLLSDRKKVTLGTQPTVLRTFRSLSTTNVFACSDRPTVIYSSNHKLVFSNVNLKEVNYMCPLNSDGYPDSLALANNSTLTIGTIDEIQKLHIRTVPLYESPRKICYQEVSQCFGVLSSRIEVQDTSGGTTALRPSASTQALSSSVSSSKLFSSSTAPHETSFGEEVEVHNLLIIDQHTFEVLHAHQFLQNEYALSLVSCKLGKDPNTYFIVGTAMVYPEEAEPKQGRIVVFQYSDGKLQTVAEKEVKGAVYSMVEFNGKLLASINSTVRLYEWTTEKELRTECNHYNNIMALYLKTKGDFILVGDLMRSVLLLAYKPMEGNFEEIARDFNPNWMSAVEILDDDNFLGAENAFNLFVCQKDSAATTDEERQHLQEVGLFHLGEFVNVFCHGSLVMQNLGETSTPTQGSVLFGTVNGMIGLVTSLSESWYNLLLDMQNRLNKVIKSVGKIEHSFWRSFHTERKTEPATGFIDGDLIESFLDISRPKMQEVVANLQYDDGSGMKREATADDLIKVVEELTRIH

| SMILES | Dmax (CDK2) | pKi (CRBN-DDB1) |
| --- | --- | --- |
| O=C1CCC(N2Cc3ccc(CNC(=O)OCC4CC5(CCCC5)C4)cc3C2=O)C(=O)N1 (stereo not drawn) [Compound 115, spiro[3.4]octan-2-ylmethyl ((2-(2,6-dioxopiperidin-3-yl)-3-oxoisoindolin-5-yl)methyl)carbamate] | 50 to 80% | 6.00 to 7.00 |
| O=C1CCC(N2Cc3ccc(CNC(=O)OC(c4ccccc4)C4CC5(CCC5)C4)cc3C2=O)C(=O)N1 (stereo not drawn) [Compound 107, phenyl(spiro[3.3]heptan-2-yl)methyl ((2-(2,6-dioxopiperidin-3-yl)-3-oxoisoindolin-5-yl)methyl)carbamate] | 50 to 80% | 6.00 to 7.00 |
| C[C@H](CC1CC1)OC(=O)NCc1ccc2c(c1)C(=O)N(C1CCC(=O)NC1=O)C2 (stereo partly drawn) [Compound 56, (2R)-1-cyclopropylpropan-2-yl N-{[2-(2,6-dioxopiperidin-3-yl)-3-oxo-2,3-dihydro-1H-isoindol-5-yl]methyl}carbamate] | 10 to 50% | 6.00 to 7.00 |
| O=C1CCC(N2Cc3ccc(CNc4nnc(C5CC6(CCC6)C5)o4)c(O)c3C2=O)C(=O)N1 (stereo not drawn) [Compound 135, 3-(7-hydroxy-1-oxo-6-(((5-(spiro[3.3]heptan-2-yl)-1,3,4-oxadiazol-2-yl)amino)methyl)isoindolin-2-yl)piperidine-2,6-dione] | 50 to 80% | 6.00 to 7.00 |
| O=C1CCC(N2Cc3ccc(CNC(=O)OCCCC4CCC4)cc3C2=O)C(=O)N1 (stereo not drawn) [Compound 128, 3-cyclobutylpropyl ((2-(2,6-dioxopiperidin-3-yl)-3-oxoisoindolin-5-yl)methyl)carbamate] | 10 to 50% | 6.00 to 7.00 |
| O=C1CCC(N2Cc3c(Cl)cc(CNC(=O)OCC4CC5(CCC5)C4)cc3C2=O)C(=O)N1 (stereo not drawn) [Compound 104, spiro[3.3]heptan-2-ylmethyl ((7-chloro-2-(2,6-dioxopiperidin-3-yl)-3-oxoisoindolin-5-yl)methyl)carbamate] | 50 to 80% | ≥ 7.00 |
| Cc1cc(CNC(=O)OCC2CC3(CCC3)C2)cc2c1CN(C1CCC(=O)NC1=O)C2=O (stereo not drawn) [Compound 105, spiro[3.3]heptan-2-ylmethyl ((2-(2,6-dioxopiperidin-3-yl)-7-methyl-3-oxoisoindolin-5-yl)methyl)carbamate] | 50 to 80% | ≥ 7.00 |
| CC(C)(C)OC(=O)N1CC(COC(=O)NCc2ccc3c(c2)C(=O)N(C2CCC(=O)NC2=O)C3)C1 (stereo not drawn) [Compound 45, tert-butyl 3-{[({[2-(2,6-dioxopiperidin-3-yl)-3-oxo-2,3-dihydro-1H-isoindol-5-yl]methyl}carbamoyl)oxy]methyl}azetidine-1-carboxylate] | ≤ 10% | 6.00 to 7.00 |

The remaining lines, values ahead:

| Dmax (CDK2) | pKi (CRBN-DDB1) | SMILES |
| --- | --- | --- |
| 10 to 50% | 6.00 to 7.00 | Nc1c(CNc2nnc(C3CC4(CCC4)C3)o2)ccc2c1C(=O)N(C1CCC(=O)NC1=O)C2 (stereo not drawn) [Compound 144, 3-(7-amino-1-oxo-6-(((5-(spiro[3.3]heptan-2-yl)-1,3,4-oxadiazol-2-yl)amino)methyl)isoindolin-2-yl)piperidine-2,6-dione] |
| 50 to 80% | ≥ 7.00 | O=C1CCC(N2Cc3c(Br)cc(CNc4nnc(C5CC6(CCC6)C5)o4)c(O)c3C2=O)C(=O)N1 (stereo not drawn) [Compound 137, 3-(4-bromo-7-hydroxy-1-oxo-6-(((5-(spiro[3.3]heptan-2-yl)-1,3,4-oxadiazol-2-yl)amino)methyl)isoindolin-2-yl)piperidine-2,6-dione] |
| 50 to 80% | 6.00 to 7.00 | O=C1CCC(N2Cc3ccc(CNc4nnc(C5CC6(CCC6)C5)o4)cc3C2=O)C(=O)N1 (stereo not drawn) [Compound 136, 3-(1-oxo-6-(((5-(spiro[3.3]heptan-2-yl)-1,3,4-oxadiazol-2-yl)amino)methyl)isoindolin-2-yl)piperidine-2,6-dione] |
| 10 to 50% | 6.00 to 7.00 | O=C1CCC(N2Cc3ccc(CNc4nnc(C5CCCCC5)o4)cc3C2=O)C(=O)N1 (stereo not drawn) [Compound 141, 3-(6-(((5-cyclohexyl-1,3,4-oxadiazol-2-yl)amino)methyl)-1-oxoisoindolin-2-yl)piperidine-2,6-dione] |
